PMC7774954, “Interactomic affinity profiling by holdup assay: Acetylation and distal residues impact the PDZome-binding specificity of PTEN phosphatase” (PLoS ONE, 2020)
*1 amine or outer side, *2 acyl side, *3 side chain or, on linkers, in order; H or OH if unused. Where a SMILES comes first, the peptide text is derived from it. The star is where a group is joined. X1 = O=C(CCCC[C@@H]1SC[C@@H]2NC(=O)N[C@@H]21)NCCCOCCOCCOCCCN*; Suc = O=C(CCC(=O)[*:2])[*:1]

Assays:
MAGI1 PDZ 3 = biological target: T1, MAGI1 PDZ 3 (Homo sapiens, UniProt Q96QZ7); assay: Holdup assay, MAGI1-3; format: binding; settings: for BI: MAGI1-3
T1 construct: made in house; host or cells: E. coli
T1 sequence (Q96QZ7 643-721 limits assumed): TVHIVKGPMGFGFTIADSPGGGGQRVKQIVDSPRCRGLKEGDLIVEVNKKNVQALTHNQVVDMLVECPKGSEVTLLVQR
Protocol: (§1) The holdup assay was performed on a Tecan freedom Evo200 robot with 384-well plates in singlicate for the three 11-mer PTEN variants and the 13-mer PTEN peptide as described in [31, 32]. Briefly, prior to interaction assay, 2.5 μL of streptavidin resin was saturated in each well with 20 μL of biotinylated PBM peptides (42 μM) and then washed twice with an excess of free biotin, while the reference resin was incubated only with biotin. Right before the holdup experiment, the PDZ library was spiked with an internal standard of lysozyme. Then, the biotin- or PBM-saturated resin was incubated, each in a distinct well of a 384-well plate, with complete cell lysates diluted so that the concentration of the tag-PDZ present in the crude extract is adjusted at 4 μM. After a sufficient time to reach complex equilibrium (15 min.), a fast and mild filtration step is performed and the tag-PDZ concentrations were measured by capillary electrophoresis instrument (LabChip GXII, PerkinElmer, Massachusets, USA). Standard markers were used to convert migration time into molecular weight on the LabChip software and inappropriate molecular weight markers were corrected or excluded.
(§2) For filtered data, the BI was extracted with the following equation (Eq 1) that estimates the depleted fraction after superimposition of the sample and reference electropherograms: BI=Iref−Ilig/Iref (1) where Iref and Ilig are the intensities of the tag-PDZ peaks measured, for each PDZ domain/PBM peptide interaction pair, in the biotin reference and the PBM electropherograms, respectively.
(§3) BIs were transformed into dissociation constants (KD) using the following formula: KD=([PDZtot]−BI·[PDZtot])·([PBMtot]−BI·[PDZtot])/BI·[PDZtot] (2) where [PDZtot] and [PBMtot] correspond to the total concentrations of the PDZ domain (usually around 4 μM) and the PBM peptide used during the assay. Since the PBMtot concentration in the resin during the holdup assay parameter may differ from one peptide to another and remains unknown, it is impossible to directly convert BI values into KD constants. We systematically determined the KD constants for a subset of PDZ/PBM pairs by competitive FP. […] For each PBM, the average peptide concentration was calculated after outlier rejection based on the absolute distances from the median as compared to three times the standard deviation (3σ rule), with never more than 2 values rejected.

SNTB2 PDZ 1 = biological target: T2, SNTB2 PDZ 1 (Homo sapiens, UniProt Q13425); assay: Holdup assay, SNTB2-1; format: binding; settings: for BI: PDZ domain SNTB2-1
T2 construct: made in house; host or cells: E. coli
T2 sequence (Q13425 115-198 limits assumed): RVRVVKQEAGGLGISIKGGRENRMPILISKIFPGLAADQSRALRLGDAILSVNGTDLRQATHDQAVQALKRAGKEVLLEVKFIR
Protocol: as §1, §2, §3

APBA3-2 = assay: Holdup assay, APBA3-2; format: binding, human
ARHGAP21-1 = assay: Holdup assay, ARHGAP21-1; format: binding, human
ARHGEF12-1 = biological target: T3, ARHGEF12-1 (Homo sapiens, UniProt Q9NZN5); assay: Holdup assay, ARHGEF12-1; format: binding
T3 sequence (Q9NZN5 72-151): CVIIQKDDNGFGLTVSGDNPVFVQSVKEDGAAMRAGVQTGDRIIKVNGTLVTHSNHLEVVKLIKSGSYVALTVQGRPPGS

DLG2-2 = DLG2-2 (Homo sapiens, UniProt Q15700); assay: Holdup assay, DLG2-2; format: binding
DLG2-2, sequence (Q15700 193-280): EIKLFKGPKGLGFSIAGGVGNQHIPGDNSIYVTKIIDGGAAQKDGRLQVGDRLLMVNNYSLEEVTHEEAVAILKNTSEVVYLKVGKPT

FRMPD2-1 = assay: Holdup assay, FRMPD2-1; format: binding, human
GOPC-1 = GOPC-1 (Homo sapiens, UniProt Q9HD26); assay: Holdup assay, GOPC-1; format: binding
GORASP2-1 = GORASP2-1 (Homo sapiens, UniProt Q9H8Y8); assay: Holdup assay, GORASP2-1; format: binding
GRIP1-2 = assay: Holdup assay, GRIP1-2; format: binding, human
GRIP1-3 = assay: Holdup assay, GRIP1-3; format: binding, human
GRIP2-1 = assay: Holdup assay, GRIP2-1; format: binding, human
HTRA3-1 = assay: Holdup assay, HTRA3-1; format: binding, human
IL16-2 = assay: Holdup assay, IL16-2; format: binding, human
IL16-4 = assay: Holdup assay, IL16-4; format: binding, human
INADL-6 = INADL-6 (Homo sapiens, UniProt Q8NI35); assay: Holdup assay, INADL-6; format: binding
INADL-6, sequence (Q8NI35 whole entry): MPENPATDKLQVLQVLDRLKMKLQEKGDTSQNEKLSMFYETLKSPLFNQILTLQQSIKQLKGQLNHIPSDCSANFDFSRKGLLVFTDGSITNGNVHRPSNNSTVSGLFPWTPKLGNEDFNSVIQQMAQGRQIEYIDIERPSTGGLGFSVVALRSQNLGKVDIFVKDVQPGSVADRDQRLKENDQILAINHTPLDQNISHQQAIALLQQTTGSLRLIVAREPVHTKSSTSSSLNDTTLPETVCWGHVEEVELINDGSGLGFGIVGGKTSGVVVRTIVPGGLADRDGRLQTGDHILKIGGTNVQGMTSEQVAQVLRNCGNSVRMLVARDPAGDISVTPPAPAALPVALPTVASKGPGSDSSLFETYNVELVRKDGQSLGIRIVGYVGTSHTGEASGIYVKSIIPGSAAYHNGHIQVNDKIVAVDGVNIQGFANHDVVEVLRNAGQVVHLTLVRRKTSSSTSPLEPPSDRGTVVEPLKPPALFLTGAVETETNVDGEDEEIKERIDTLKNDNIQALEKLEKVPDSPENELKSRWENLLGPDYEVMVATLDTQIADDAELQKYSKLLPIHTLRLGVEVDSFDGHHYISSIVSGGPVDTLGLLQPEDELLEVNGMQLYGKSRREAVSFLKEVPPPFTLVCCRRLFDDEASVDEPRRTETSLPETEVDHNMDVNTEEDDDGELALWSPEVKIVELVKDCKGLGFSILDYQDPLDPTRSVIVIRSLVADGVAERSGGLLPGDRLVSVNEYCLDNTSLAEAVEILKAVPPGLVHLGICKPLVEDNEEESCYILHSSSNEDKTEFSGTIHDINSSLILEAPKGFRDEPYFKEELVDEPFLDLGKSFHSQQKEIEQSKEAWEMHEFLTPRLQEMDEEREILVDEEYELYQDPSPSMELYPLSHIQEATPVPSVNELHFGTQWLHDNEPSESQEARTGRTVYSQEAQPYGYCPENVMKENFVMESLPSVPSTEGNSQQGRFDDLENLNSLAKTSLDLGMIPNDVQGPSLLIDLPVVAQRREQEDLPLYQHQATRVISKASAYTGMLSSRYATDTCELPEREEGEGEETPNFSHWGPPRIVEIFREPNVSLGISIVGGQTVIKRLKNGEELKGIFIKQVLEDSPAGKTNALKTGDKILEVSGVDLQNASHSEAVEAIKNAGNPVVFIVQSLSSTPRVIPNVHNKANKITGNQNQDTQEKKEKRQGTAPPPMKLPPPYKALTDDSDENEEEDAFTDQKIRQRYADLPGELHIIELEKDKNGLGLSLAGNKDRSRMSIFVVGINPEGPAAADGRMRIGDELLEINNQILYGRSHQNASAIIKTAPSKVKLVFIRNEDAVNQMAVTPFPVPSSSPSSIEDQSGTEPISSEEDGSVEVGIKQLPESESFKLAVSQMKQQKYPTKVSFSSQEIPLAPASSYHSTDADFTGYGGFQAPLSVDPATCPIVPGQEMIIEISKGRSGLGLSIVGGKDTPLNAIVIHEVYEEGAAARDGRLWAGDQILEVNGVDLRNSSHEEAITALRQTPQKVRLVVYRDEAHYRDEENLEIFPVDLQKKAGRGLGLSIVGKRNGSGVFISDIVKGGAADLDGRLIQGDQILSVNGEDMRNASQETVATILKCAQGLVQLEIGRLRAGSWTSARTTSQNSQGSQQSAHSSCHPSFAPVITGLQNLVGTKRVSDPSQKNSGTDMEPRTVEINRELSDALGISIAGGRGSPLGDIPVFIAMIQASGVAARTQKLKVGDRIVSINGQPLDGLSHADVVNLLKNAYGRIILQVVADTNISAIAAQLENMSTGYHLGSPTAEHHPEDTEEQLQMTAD

LIMK2-1 = biological target: T4, LIMK2-1 (Homo sapiens, UniProt P53671); assay: Holdup assay, LIMK2-1; format: binding
T4 sequence (P53671 152-239): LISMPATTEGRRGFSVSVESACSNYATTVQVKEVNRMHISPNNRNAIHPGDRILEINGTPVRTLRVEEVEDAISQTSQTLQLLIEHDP

LNX2-2 = biological target: T5, LNX2-2 (Homo sapiens, UniProt Q8N448); assay: Holdup assay, LNX2-2; format: binding
T5 sequence (Q8N448 339-422): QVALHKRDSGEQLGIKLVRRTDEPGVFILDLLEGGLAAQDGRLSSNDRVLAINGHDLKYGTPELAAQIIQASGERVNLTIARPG

MAGI1-1 = assay: Holdup assay, MAGI1-1; format: binding, human
MAGI2-1 = assay: Holdup assay, MAGI2-1; format: binding, human
MAGI2-4 = MAGI2-4 (Homo sapiens, UniProt Q86UL8); assay: Holdup assay, MAGI2-4; format: binding
MAGI2-5 = MAGI2-5 (Homo sapiens, UniProt Q86UL8); assay: Holdup assay, MAGI2-5; format: binding
MPDZ-11 = MPDZ-11 (Homo sapiens, UniProt O75970); assay: Holdup assay, MPDZ-11; format: binding
MPDZ-11, sequence (O75970 whole entry): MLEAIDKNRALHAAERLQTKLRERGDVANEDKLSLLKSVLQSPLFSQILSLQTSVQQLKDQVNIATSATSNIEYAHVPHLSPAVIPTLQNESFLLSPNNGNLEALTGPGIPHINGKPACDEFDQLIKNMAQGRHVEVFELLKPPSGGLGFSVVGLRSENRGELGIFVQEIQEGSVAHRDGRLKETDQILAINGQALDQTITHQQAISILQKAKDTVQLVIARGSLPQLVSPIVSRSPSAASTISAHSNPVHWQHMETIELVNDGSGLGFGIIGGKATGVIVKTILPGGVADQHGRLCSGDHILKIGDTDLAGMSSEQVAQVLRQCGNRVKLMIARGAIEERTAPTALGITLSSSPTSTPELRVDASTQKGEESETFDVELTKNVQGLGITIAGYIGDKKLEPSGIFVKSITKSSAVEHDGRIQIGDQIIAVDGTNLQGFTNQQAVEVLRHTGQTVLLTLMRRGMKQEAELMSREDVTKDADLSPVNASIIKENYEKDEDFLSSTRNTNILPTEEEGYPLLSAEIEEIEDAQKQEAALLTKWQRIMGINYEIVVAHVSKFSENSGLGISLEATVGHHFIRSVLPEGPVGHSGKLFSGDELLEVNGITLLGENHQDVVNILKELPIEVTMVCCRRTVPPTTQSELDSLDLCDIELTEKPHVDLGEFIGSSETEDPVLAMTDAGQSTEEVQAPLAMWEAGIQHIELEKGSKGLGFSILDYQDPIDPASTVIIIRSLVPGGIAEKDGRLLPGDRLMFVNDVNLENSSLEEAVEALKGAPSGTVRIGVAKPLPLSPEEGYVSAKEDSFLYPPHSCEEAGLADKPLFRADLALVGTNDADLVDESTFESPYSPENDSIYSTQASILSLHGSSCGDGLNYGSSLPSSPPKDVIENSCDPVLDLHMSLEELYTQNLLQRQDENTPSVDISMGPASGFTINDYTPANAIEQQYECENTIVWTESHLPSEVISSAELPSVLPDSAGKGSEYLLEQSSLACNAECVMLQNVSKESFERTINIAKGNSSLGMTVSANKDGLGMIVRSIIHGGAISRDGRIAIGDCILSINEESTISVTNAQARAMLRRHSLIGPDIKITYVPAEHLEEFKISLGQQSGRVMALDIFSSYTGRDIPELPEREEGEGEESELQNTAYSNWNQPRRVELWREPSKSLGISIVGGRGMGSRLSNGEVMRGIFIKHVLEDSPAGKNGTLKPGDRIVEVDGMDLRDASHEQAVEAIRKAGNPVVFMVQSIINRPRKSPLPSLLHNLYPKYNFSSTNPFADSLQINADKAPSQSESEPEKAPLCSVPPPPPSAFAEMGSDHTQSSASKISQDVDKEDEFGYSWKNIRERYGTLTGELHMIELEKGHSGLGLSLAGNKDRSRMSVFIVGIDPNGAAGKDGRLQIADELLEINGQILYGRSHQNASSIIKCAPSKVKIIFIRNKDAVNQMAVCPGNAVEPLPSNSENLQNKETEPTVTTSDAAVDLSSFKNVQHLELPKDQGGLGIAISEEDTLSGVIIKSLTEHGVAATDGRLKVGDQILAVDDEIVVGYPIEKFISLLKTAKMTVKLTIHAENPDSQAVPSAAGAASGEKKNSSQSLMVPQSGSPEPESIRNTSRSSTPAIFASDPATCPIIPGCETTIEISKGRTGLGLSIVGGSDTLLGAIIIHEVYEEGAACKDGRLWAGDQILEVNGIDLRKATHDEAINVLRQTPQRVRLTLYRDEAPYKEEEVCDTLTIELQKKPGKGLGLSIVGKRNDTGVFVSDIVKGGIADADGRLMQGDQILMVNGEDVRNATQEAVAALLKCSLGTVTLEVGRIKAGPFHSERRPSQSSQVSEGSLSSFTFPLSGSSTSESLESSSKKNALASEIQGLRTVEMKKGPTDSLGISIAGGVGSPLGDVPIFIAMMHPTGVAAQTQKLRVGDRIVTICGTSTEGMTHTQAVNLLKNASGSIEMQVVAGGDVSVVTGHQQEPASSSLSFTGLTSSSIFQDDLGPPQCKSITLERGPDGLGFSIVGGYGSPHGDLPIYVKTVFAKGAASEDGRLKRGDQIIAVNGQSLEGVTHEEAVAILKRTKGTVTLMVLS

SMILES: CC[C@H](C)[C@H](NC(=O)[C@H](CCC(N)=O)NC(=O)[C@@H](NC(=O)[C@H](Cc1c[nH]cn1)NC(=O)[C@H](CCC(N)=O)NC(=O)[C@H](CC(=O)O)NC(=O)[C@H](CCC(=O)O)NC(=O)[C@H](CC(=O)O)NC(=O)CCC(=O)NCCCOCCOCCOCCCNC(=O)CCCC[C@@H]1SC[C@@H]2NC(=O)N[C@@H]21)[C@@H](C)O)C(=O)N[C@H](C(=O)N[C@@H](CCCNC(=N)N)C(=O)N[C@H](C(=O)O)C(C)C)[C@@H](C)O [PTEN_KR] ({X1-Suc}-DEDQHTQITRV-OH)
- Kd (MAGI1 PDZ 3): 14.7 µM
- BI (MAGI1 PDZ 3): 0.605
- BI (SNTB2 PDZ 1): 0.009
- BI (APBA3-2): 0.086
- LogKD (APBA3-2): 3.655
- BI (ARHGAP21-1): 0.074
- LogKD (ARHGAP21-1): 3.655
- BI (ARHGEF12-1): 0.433
- Kd (ARHGEF12-1): 30.5 µM
- BI (DLG2-2): 0.312
- Kd (DLG2-2): 52.4 µM
- BI (FRMPD2-1): -0.015
- LogKD (FRMPD2-1): 3.655
- BI (GOPC-1): 0.45
- Kd (GOPC-1): 28.4 µM
- Kd (GORASP2-1): 16 µM
- BI (GORASP2-1; GORASP2-1): 0.586
- BI (GRIP1-2): -0.06
- LogKD (GRIP1-2): 3.655
- BI (GRIP1-3): -0.034
- LogKD (GRIP1-3): 3.655
- BI (GRIP2-1): -0.04
- LogKD (GRIP2-1): 3.655
- BI (HTRA3-1): 0.065
- LogKD (HTRA3-1): 3.655
- BI (IL16-2): -0.114
- LogKD (IL16-2): 3.655
- BI (IL16-4): 0.002
- LogKD (IL16-4): 3.655
- BI (INADL-6): 0.066
- LogKD (INADL-6): 3.655
- BI (LIMK2-1): -0.042
- LogKD (LIMK2-1): 3.655
- BI (LNX2-2): 0.256
- Kd (LNX2-2): 69.7 µM
- BI (MAGI1-1): -0.057
- LogKD (MAGI1-1): 3.655
- BI (MAGI2-1): -0.074
- LogKD (MAGI2-1): 3.655
- BI (MAGI2-4): 0.116
- BI (MAGI2-5): -0.074
- LogKD (MAGI2-5): 3.655
- BI (MPDZ-11): 0.02
- LogKD (MPDZ-11): 3.655

SMILES: CC[C@H](C)[C@H](NC(=O)[C@H](CCC(N)=O)NC(=O)[C@@H](NC(=O)[C@H](Cc1c[nH]cn1)NC(=O)[C@H](CCC(N)=O)NC(=O)[C@H](CC(=O)O)NC(=O)[C@H](CCC(=O)O)NC(=O)[C@H](CC(=O)O)NC(=O)[C@H](Cc1ccccc1)NC(=O)[C@@H]1CCCN1C(=O)CCC(=O)NCCCOCCOCCOCCCNC(=O)CCCC[C@@H]1SC[C@@H]2NC(=O)N[C@@H]21)[C@@H](C)O)C(=O)N[C@H](C(=O)N[C@@H](CCCCN)C(=O)N[C@H](C(=O)O)C(C)C)[C@@H](C)O [PTEN_13] ({X1-Suc}-PFDEDQHTQITKV-OH)
- Kd (MAGI1 PDZ 3): 10.4 µM
- BI (MAGI1 PDZ 3): 0.584
- Kd (SNTB2 PDZ 1): 64 µM
- BI (SNTB2 PDZ 1): 0.202
- BI (APBA3-2): 0.046
- BI (ARHGAP21-1): 0.028
- BI (ARHGEF12-1): 0.169
- BI (DLG2-2): 0.054
- LogKD (DLG2-2): 3.826
- BI (FRMPD2-1): -0.07
- BI (GOPC-1): 0.199
- Kd (GOPC-1): 65.2 µM
- BI (GORASP2-1; GORASP2-1): 0.092
- LogKD (GORASP2-1; GORASP2-1): 3.826
- BI (GRIP1-2): 0.009
- BI (GRIP1-3): -0.002
- BI (GRIP2-1): -0.085
- BI (HTRA3-1): -0.059
- BI (IL16-2): -0.025
- BI (IL16-4): 0.014
- BI (INADL-6): 0.044
- LogKD (INADL-6): 3.826
- BI (LIMK2-1): 0.152
- BI (LNX2-2): 0.136
- BI (MAGI1-1): -0.027
- BI (MAGI2-1): -0.114
- BI (MAGI2-4): -0.036
- LogKD (MAGI2-4): 3.826
- BI (MAGI2-5): 0.046
- LogKD (MAGI2-5): 3.826
- BI (MPDZ-11): 0.012
- LogKD (MPDZ-11): 3.826

SMILES: CC[C@H](C)[C@H](NC(=O)[C@H](CCC(N)=O)NC(=O)[C@@H](NC(=O)[C@H](Cc1c[nH]cn1)NC(=O)[C@H](CCC(N)=O)NC(=O)[C@H](CC(=O)O)NC(=O)[C@H](CCC(=O)O)NC(=O)[C@H](CC(=O)O)NC(=O)CCC(=O)NCCCOCCOCCOCCCNC(=O)CCCC[C@@H]1SC[C@@H]2NC(=O)N[C@@H]21)[C@@H](C)O)C(=O)N[C@H](C(=O)N[C@@H](CCCCNC(C)=O)C(=O)N[C@H](C(=O)O)C(C)C)[C@@H](C)O [PTEN_Ac]
- Kd (MAGI1 PDZ 3): 10 µM
- BI (MAGI1 PDZ 3): 0.715
- BI (APBA3-2): 0.024
- LogKD (APBA3-2): 3.605
- BI (ARHGAP21-1): 0.012
- LogKD (ARHGAP21-1): 3.605
- BI (ARHGEF12-1): 0.535
- Kd (ARHGEF12-1): 22.5 µM
- BI (DLG2-2): 0.329
- Kd (DLG2-2): 54.4 µM
- BI (FRMPD2-1): -0.083
- LogKD (FRMPD2-1): 3.605
- BI (GOPC-1): 0.404
- Kd (GOPC-1): 38.9 µM
- Kd (GORASP2-1): 36.7 µM
- BI (GORASP2-1; GORASP2-1): 0.418
- BI (GRIP1-2): -0.02
- LogKD (GRIP1-2): 3.605
- BI (GRIP1-3): 0.02
- LogKD (GRIP1-3): 3.605
- BI (GRIP2-1): -0.038
- LogKD (GRIP2-1): 3.605
- BI (HTRA3-1): 0.011
- LogKD (HTRA3-1): 3.605
- BI (IL16-2): -0.157
- LogKD (IL16-2): 3.605
- BI (IL16-4): 0.014
- LogKD (IL16-4): 3.605
- BI (INADL-6): 0.316
- Kd (INADL-6): 57.9 µM
- BI (LIMK2-1): -0.087
- LogKD (LIMK2-1): 3.605
- BI (LNX2-2): 0.68
- Kd (LNX2-2): 11.9 µM
- BI (MAGI1-1): 0.034
- LogKD (MAGI1-1): 3.605
- BI (MAGI2-1): 0.014
- LogKD (MAGI2-1): 3.605
- BI (MAGI2-4): 0.1
- LogKD (MAGI2-4): 3.605
- BI (MAGI2-5): 0.148
- BI (MPDZ-11): 0.145
